Results reported in US9724408B2, “Compositions and methods for activating stimulator of interferon gene-dependent signalling” (ADURO BIOTECH, INC., priority 2013, dated 2017).

Legend:
[1] = tested on: CT26 colon carcinoma cells; assay: CT26 lung metastasis survival model, subcutaneous CDN; format: in vivo, BALB/c mice; details: CT26 intravenous, 25 μg subcutaneous at base of the tail, day 1 and one week later, log-rank test, FIG. 19A
Method: To further assess the ability of the derivative molecules to promote anti-tumor immunity, CT26 colon carcinoma cells (2×10^5 cells in 100 μL PBS) were implanted by intravenous injection into 6-8 week old female BALB/c mice and assessed for overall survival. The CDN compounds (25 μg in a total volume of 100 μL HBSS) were administered one day post tumor implantation by subcutaneous injection into the base of the tail. Mice were boosted with an additional injection one week later for a total of two vaccinations.

[2] = tested on: human STING variants (WT, REF, HAQ, AQ and Q); assay: IFNβ-LUC reporter in HEK293T cells expressing human STING alleles; format: cell-based; details: 10 μM, digitonin permeabilization, 6 hrs, FIG. 14
Method: MSCV2.2 plasmids encoding hSTING(REF)-GFP, hSTING(WT)-GFP, hSTING(HAQ)-GFP, hSTING(Q)-GFP and mSTING(WT)-GFP were obtained from the Vance Laboratory at UC Berkeley. hSTING(AQ)-GFP was derived from hSTING(Q)-GFP using a QuickChange Site-Directed Mutagenesis kit (Stratagene). […] 1×10^4 HEK293T STING cells were seeded in 96-well plates and transiently transfected (using Lipofectamine 2000) with 50 ng of a human IFN-β reporter plasmid (pLuc-IFN-β) expressing the human IFN-β promoter upstream of a luciferase reporter and 10 ng of TK-renilla for normalization. 24 hours later, cells were stimulated with native and synthetic CDN derivative molecules using digitonin permeabalization to ensure uniform uptake. Each STING cell line was stimulated with 10 μM of cyclic [G(3′,5′)pA(3′,5′)p] (cGAMP), cyclic [G(2′,5′)pA(3′,5′)p] […] (RR-CDA), cyclic [A(2′,5′)pA(3′,5′)p] […] (RR-CDG), cyclic [G(2′,5′)pG(3′,5′)p] […] (ML RR-CDG) in 25 ul digitonin buffer (50 mM HEPES, 100 mM KCL, 3 mM MgCl2, 0.1 mM DTT, 85 mM Sucrose, 0.2% BSA, 1 mM ATP, 0.1 mM GTP, 10 ug/ml digitonin). After 20 min, the stimulation mixtures were removed and 200 ul of standard RPMI media was added. After stimulation for 6 hrs, cell lysates were prepared and reporter gene activity measured using the Dual Luciferase Assay System (Promega) on a Spectramax M3 luminometer.

hSTING (Q) = assay: IFNβ-LUC reporter in HEK293T cells expressing hSTING (Q); format: cell-based, human; details: 10 μM, digitonin permeabilization, 6 hrs, FIG. 14
Text: To determine the responsiveness of the five known natural human STING variants (referred to as WT, REF, HAQ, AQ and Q) to the native and derivative molecules, a panel of human embryonic kidney (HEK) 293T cell lines that expressed the human STING alleles was generated. […] MSCV2.2 plasmids encoding hSTING(REF)-GFP, hSTING(WT)-GFP, hSTING(HAQ)-GFP, hSTING(Q)-GFP and mSTING(WT)-GFP were obtained from the Vance Laboratory at UC Berkeley. hSTING(AQ)-GFP was derived from hSTING(Q)-GFP using a QuickChange Site-Directed Mutagenesis kit (Stratagene). The sequence of the hSTING(REF) allele is also known as the Barber allele (Ishikawa, H., and Barber, G. N. (2008). Nature 455, 674-678), and has the NCBI Reference Sequence NP_938023.1. The amino acid difference between hSTING(REF) and the other WT, HAQ, AQ and Q human STING alleles are shown in FIG. 13, which is adapted from Yi et al., Plos One 8: e77846 (2013). Stable HEK 293T-derived cell lines expressing each of the individual human STING alleles were generated by FACS sorting of GFP positive cells using a Mo Flo cell sorter at the Cancer Research Laboratory Flow Cytometry Facility at UC Berkeley. 1×10^4 HEK293T STING cells were seeded in 96-well plates and transiently transfected (using Lipofectamine 2000) with 50 ng of a human IFN-β reporter plasmid (pLuc-IFN-β) expressing the human IFN-β promoter upstream of a luciferase reporter and 10 ng of TK-renilla for normalization. 24 hours later, cells were stimulated with native and synthetic CDN derivative molecules using digitonin permeabalization to ensure uniform uptake. Each STING cell line was stimulated with 10 μM of cyclic [G(3′,5′)pA(3′,5′)p] (cGAMP), cyclic [G(2′,5′)pA(3′,5′)p] (ML-cGAMP), Rp, Rp dithio cyclic [G(2′,5′)pA(3′,5′)p] […] (CDA), Rp, Rp dithio cyclic [A(3′,5′)pA(3′,5′)p] (RR-CDA), cyclic [A(2′,5′)pA(3′,5′)p] (ML-CDA), Rp, Rp dithio cyclic [A(2′,5′)pA(3′,5′)p] (ML RR-CDA), cyclic [G(3′,5′)pG(3′,5′)p] (CDG), Rp, Rp dithio cyclic [G(3′,5′)pG(3′,5′)p] (RR-CDG), cyclic [G(2′,5′)pG(3′,5′)p] (ML-CDG) or Rp, Rp dithio cyclic [G(2′,5′)pG(3′,5′)p] (ML RR-CDG) in 25 ul digitonin buffer (50 mM HEPES, 100 mM KCL, 3 mM MgCl2, 0.1 mM DTT, 85 mM Sucrose, 0.2% BSA, 1 mM ATP, 0.1 mM GTP, 10 ug/ml digitonin). After 20 min, the stimulation mixtures were removed and 200 ul of standard RPMI media was added. After stimulation for 6 hrs, cell lysates were prepared and reporter gene activity measured using the Dual Luciferase Assay System (Promega) on a Spectramax M3 luminometer.

[3] = tested on: natural killer (NK) cells, CD4+ and CD8+ T cells; assay: Surface CD69 upregulation on lymphocytes after subcutaneous CDN (FACS); format: in vivo, BALB/c mice; details: 50, 5 and 0.5 μM in 100 μL, base of the tail, 24 hours, FIG. 11
Method: To determine the relative ability of the derivative molecules to activate immune responses, CDN compounds were administered to 6-8 week old female BALB/c mice (in a total volume of 100 μL in HBSS) at doses of 50, 5 and 0.5 μM by subcutaneous injection into the base of the tail. Mice were assessed 24 hours later for lymphocyte immune cell activation by fluorescent activated cell sorting (FACS) for upregulation of surface CD69 expression on natural killer (NK) cells, CD4+ and CD8+ T cells, as compared to IgG1 isotype controls.

| Compound | survival rates [1] | IFNβ reporter activity, all human STING alleles [2] | IFNβ reporter response of hSTING (Q) (hSTING (Q)) | immune cell activation (surface CD69 on NK, CD4+ and CD8+ T cells) [3] |
| --- | --- | --- | --- | --- |
| Nc1ncnc2c1ncn2[C@@H]1O[C@@H]2COP(O)(=S)O[C@@H]3C(O)[C@@H](COP(O)(=S)O[C@H]2[C@H]1O)O[C@H]3n1cnc2c(N)ncnc21 (some centres unmarked) [ML RR-CDA, dithio-[RP, RP]-cyclic-[A(2′,5′)pA(3′,5′)p]] | significantly higher survival rates compared to the cyclic [A(2′,5′)pA(3′,5′)p] (ML CDA) molecule | strongly induce IFNβ reporter activity by all human STING alleles | responsive to stimulation | induced NK and T cell activation, although to a lesser extent than the ML RR-CDG molecule |
| Nc1nc2c(ncn2[C@@H]2O[C@@H]3CO[P@@](O)(=S)O[C@@H]4[C@H](O)[C@@H](CO[P@@](O)(=S)O[C@H]3[C@H]2O)O[C@H]4n2cnc3c(=O)[nH]c(N)nc32)c(=O)[nH]1 [ML RR-CDG, dithio-[RP,RP]-cyclic-[G(2′,5′)pG(3′,5′)p]] | significantly higher survival rates compared to the cyclic [G(2′,5′)pG(3′,5′)p] (ML CDG) molecule | strongly induce IFNβ reporter activity by all human STING alleles | responsive to stimulation | potent immune activation of NK and T cells in a dose-dependent manner |
